# Measured values taken from the OligoGym collection.
# Oligonucleotides are written 5' to 3', each unit as a sugar letter and its base; * is a phosphorothioate linkage, no mark a phosphodiester; rarer units and linkages stand in square brackets, end groups in braces. Plain capitals give the bases only. d = 2'-deoxy (DNA); r = 2'-OH (RNA)
# Biological target: MRFAP1
# Assay: reporter assay of Huesken 2005
# Conditions: siRNA
# Note: test concentration or dose not given here.
row,Substance,normalised inhibition (eCFP-eYFP dual reporter) [%]
1,sense rGrArGrArGrCrCrUrUrUrGrUrUrUrUrCrCrUrUdTdT / antisense rArArGrGrArArArArCrArArArGrGrCrUrCrUrCdTdG,106
2,sense rGrArGrArUrGrCrUrGrGrUrGrCrArGrCrUrCrGdTdT / antisense rCrGrArGrCrUrGrCrArCrCrArGrCrArUrCrUrCdGdG,32.2
3,sense rGrArGrCrCrGrUrCrCrGrCrGrGrUrUrUrCrCrAdTdT / antisense rUrGrGrArArArCrCrGrCrGrGrArCrGrGrCrUrCdAdC,70.1
4,sense rGrArGrGrArCrArUrCrGrCrGrUrCrGrCrUrGrAdTdT / antisense rUrCrArGrCrGrArCrGrCrGrArUrGrUrCrCrUrCdGdC,77.9
5,sense rGrArGrGrArCrUrCrCrArUrGrCrArGrCrArArUdTdT / antisense rArUrUrGrCrUrGrCrArUrGrGrArGrUrCrCrUrCdTdT,44.8
6,sense rGrArGrGrUrCrUrUrGrUrUrCrGrUrCrUrGrUrAdTdT / antisense rUrArCrArGrArCrGrArArCrArArGrArCrCrUrCdAdT,72.7
7,sense rGrArGrUrGrUrCrGrUrGrCrArGrArCrArArGrCdTdT / antisense rGrCrUrUrGrUrCrUrGrCrArCrGrArCrArCrUrCdAdG,64.8
8,sense rGrArUrCrArArGrArCrGrCrArGrGrUrArGrArGdTdT / antisense rCrUrCrUrArCrCrUrGrCrGrUrCrUrUrGrArUrCdTdG,72
9,sense rGrCrArArArGrCrArGrCrGrGrArGrArUrGrCrGdTdT / antisense rCrGrCrArUrCrUrCrCrGrCrUrGrCrUrUrUrGrCdTdT,74.8
10,sense rGrCrGrCrCrCrGrUrGrCrGrCrArArCrCrGrGrGdTdT / antisense rCrCrCrGrGrUrUrGrCrGrCrArCrGrGrGrCrGrCdGdC,55.3
11,sense rGrCrUrCrUrUrUrCrUrUrGrGrGrUrGrArCrCrUdTdT / antisense rArGrGrUrCrArCrCrCrArArGrArArArGrArGrCdAdA,95.8
12,sense rGrCrUrGrArArArCrCrArGrArGrArGrCrCrUrUdTdT / antisense rArArGrGrCrUrCrUrCrUrGrGrUrUrUrCrArGrCdTdT,102
13,sense rGrGrArArArArUrGrCrGrCrUrCrArCrArUrArCdTdT / antisense rGrUrArUrGrUrGrArGrCrGrCrArUrUrUrUrCrCdAdA,86.7
14,sense rGrGrArCrArGrCrCrUrArArCrUrCrArUrUrUrUdTdT / antisense rArArArArUrGrArGrUrUrArGrGrCrUrGrUrCrCdCdA,62.8
15,sense rGrGrArGrArUrGrGrCrGrArArGrArUrGrGrCrCdTdT / antisense rGrGrCrCrArUrCrUrUrCrGrCrCrArUrCrUrCrCdTdG,72.4
16,sense rGrGrArGrGrArUrUrGrUrArUrUrGrUrUrUrCrUdTdT / antisense rArGrArArArCrArArUrArCrArArUrCrCrUrCrCdGdA,105
17,sense rGrGrArGrUrUrGrGrArGrCrUrCrArCrCrGrCrCdTdT / antisense rGrGrCrGrGrUrGrArGrCrUrCrCrArArCrUrCrCdAdA,50
18,sense rGrGrArUrUrGrUrArUrUrGrUrUrUrCrUrArUrGdTdT / antisense rCrArUrArGrArArArCrArArUrArCrArArUrCrCdTdC,93.3
19,sense rGrGrCrArArGrCrUrGrUrGrGrGrArGrArUrGrGdTdT / antisense rCrCrArUrCrUrCrCrCrArCrArGrCrUrUrGrCrCdCdC,81
20,sense rGrGrCrCrUrUrArCrArCrGrGrCrUrArGrGrArCdTdT / antisense rGrUrCrCrUrArGrCrCrGrUrGrUrArArGrGrCrCdCdA,60
21,sense rGrGrGrCrGrGrCrGrCrCrGrArGrCrCrCrCrGrCdTdT / antisense rGrCrGrGrGrGrCrUrCrGrGrCrGrCrCrGrCrCrCdGdC,74.9
22,sense rGrGrGrUrGrArCrCrUrGrArUrArGrCrUrCrCrCdTdT / antisense rGrGrGrArGrCrUrArUrCrArGrGrUrCrArCrCrCdAdA,87.1
23,sense rGrGrUrArUrCrCrCrCrArUrArUrArUrUrUrGrAdTdT / antisense rUrCrArArArUrArUrArUrGrGrGrGrArUrArCrCdAdA,76.3
24,sense rGrGrUrCrArArArArCrCrCrUrUrArCrCrArUrGdTdT / antisense rCrArUrGrGrUrArArGrGrGrUrUrUrUrGrArCrCdTdC,84.5
25,sense rGrGrUrGrCrArGrCrUrCrGrUrGrCrGrGrCrGrGdTdT / antisense rCrCrGrCrCrGrCrArCrGrArGrCrUrGrCrArCrCdAdG,88.4
26,sense rGrUrArGrUrCrArArGrCrUrArUrArArArUrGrUdTdT / antisense rArCrArUrUrUrArUrArGrCrUrUrGrArCrUrArCdAdT,88.3
